The results in this text go back to patent US20250129078A1, “ERBB2 INHIBITORS” (Cogent Biosciences, Inc., priority 2023, published 2025).

One test addresses ErbB2 V777L (Homo sapiens (Human), UniProt P04626, V777L). The test is described as follows: ErbB enzyme assay (CisBio HTRF-KinEASE-TK), ErbB2 V777L. The class given is biochemical. Here is the method:
In vitro enzyme assays based on CisBio HTRF-KinEASE-TK technology were used to determine compound potencies. […] After another 1 h incubation at ambient temperature, the extent of substrate phosphorylation was determined using a PerkinElmer EnVision multimode plate reader via time-resolved fluorescence dual wavelength detection. The percent of control (POC) was calculated using the ratio of emission at […] to the emission at 620 nm. One hundred POC was determined using DMSO only controls (no test compounds present) and zero POC was determined using pre-quenched controls reactions. A 4-parameter logistic equation was fit to the POC values as a function of the test compound concentration and the IC50 value was determined as the point where the curve crossed 50 POC.
In general terms: TR-FRET usually uses a lanthanide donor and a delayed reading to cut background.

The target in another test is EGFR WT (Homo sapiens (Human), UniProt P00533). The test is described as follows: ErbB enzyme assay (CisBio HTRF-KinEASE-TK), EGFR WT. The conditions noted are these: ATP at Km (25 μM), 1 h incubation. The class given is biochemical. In outline:
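IC50 comes from a 4-parameter fit where the curve crosses 50 percent of control, using the 655/620 nm time-resolved fluorescence ratio with DMSO-only and pre-quenched references. Kinase reactions ran 1 h at ambient temperature before Sa-XL665/cryptate-antibody detection (1 h).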

A word on the IC50: it is the concentration that gives 50% inhibition. Lower therefore signals inhibition by little substance.

Sequence of EGFR WT (P00533 25-1210): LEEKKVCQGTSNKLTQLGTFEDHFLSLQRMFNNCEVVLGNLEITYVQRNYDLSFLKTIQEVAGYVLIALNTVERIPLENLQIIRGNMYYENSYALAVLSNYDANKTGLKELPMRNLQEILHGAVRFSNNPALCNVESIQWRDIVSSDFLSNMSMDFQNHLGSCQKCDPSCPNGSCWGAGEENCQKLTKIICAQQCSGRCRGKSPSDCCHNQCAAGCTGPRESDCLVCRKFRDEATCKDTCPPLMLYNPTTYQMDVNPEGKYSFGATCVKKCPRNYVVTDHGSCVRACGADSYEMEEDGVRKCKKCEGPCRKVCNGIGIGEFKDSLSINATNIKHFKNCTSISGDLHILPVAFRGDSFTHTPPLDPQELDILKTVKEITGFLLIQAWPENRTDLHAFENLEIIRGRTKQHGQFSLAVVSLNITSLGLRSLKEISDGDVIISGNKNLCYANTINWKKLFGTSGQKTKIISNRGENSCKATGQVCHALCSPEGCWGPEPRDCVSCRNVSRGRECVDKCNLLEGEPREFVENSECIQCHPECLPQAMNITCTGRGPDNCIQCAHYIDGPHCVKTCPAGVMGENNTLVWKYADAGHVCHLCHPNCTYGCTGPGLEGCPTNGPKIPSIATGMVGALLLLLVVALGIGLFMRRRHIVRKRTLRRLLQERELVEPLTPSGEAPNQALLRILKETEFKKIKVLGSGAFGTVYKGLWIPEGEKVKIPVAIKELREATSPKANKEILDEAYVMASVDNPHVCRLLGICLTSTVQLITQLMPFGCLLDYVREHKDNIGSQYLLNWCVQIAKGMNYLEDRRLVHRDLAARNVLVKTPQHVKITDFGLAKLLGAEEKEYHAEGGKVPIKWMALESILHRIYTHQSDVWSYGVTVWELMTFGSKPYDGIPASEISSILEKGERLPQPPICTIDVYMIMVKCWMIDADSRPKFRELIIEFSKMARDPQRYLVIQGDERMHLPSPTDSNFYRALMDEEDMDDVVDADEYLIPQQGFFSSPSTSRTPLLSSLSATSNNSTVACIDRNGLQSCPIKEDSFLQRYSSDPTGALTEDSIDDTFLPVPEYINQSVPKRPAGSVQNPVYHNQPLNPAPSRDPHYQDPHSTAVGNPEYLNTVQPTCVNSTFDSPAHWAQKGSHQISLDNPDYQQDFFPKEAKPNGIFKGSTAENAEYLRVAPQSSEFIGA
Sequence of ErbB2 V777L (P04626 23-1255 V777L): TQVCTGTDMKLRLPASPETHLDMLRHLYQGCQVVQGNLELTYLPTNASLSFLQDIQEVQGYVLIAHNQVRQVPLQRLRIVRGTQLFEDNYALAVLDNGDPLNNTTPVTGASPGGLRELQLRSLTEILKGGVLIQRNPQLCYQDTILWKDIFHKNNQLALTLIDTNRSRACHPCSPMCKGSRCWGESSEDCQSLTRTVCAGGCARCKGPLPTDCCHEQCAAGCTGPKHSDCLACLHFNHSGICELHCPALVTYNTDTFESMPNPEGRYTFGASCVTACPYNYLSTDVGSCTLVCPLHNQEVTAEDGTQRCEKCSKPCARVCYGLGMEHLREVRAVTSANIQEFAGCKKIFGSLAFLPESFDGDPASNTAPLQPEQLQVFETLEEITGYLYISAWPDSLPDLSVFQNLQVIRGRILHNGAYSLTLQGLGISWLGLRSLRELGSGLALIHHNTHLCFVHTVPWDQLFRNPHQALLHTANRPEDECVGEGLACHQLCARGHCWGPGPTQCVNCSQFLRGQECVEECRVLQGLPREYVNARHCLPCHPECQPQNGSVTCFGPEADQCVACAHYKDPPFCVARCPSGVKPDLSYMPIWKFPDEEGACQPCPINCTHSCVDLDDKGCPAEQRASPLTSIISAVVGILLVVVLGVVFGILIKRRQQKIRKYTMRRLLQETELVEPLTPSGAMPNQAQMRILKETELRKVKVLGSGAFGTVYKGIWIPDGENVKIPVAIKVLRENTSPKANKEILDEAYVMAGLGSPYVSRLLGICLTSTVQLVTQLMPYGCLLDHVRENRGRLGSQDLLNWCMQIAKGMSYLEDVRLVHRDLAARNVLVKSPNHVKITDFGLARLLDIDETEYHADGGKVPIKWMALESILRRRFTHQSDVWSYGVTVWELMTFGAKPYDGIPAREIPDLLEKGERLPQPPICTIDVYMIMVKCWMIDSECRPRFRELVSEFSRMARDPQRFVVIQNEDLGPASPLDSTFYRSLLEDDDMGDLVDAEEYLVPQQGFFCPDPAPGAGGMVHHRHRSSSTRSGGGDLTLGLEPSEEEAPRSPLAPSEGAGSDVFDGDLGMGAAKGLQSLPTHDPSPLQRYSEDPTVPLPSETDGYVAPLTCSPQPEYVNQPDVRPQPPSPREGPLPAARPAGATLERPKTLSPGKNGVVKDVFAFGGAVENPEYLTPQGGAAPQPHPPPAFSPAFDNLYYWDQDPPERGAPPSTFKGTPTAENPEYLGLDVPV

In the case of `C=CC(=O)N1CCC(Oc2ncc3ncnc(Nc4ccc(Oc5ccn6ncnc6c5)c(C)c4)c3n2)C1` (stereo not drawn) [Compound 377, 1-(3-((8-((4-([1,2,4]triazolo[1,5-a]pyridin-7-yloxy)-3-methylphenyl)amino)pyrimido[5,4-d]pyrimidin-2-yl)oxy)pyrrolidin-1-yl)prop-2-en-1-one], the IC50 against ErbB2 V777L and against EGFR WT was 100 to 500 nM throughout.
Turning to `C=CC(=O)N1CCN(c2ccc3ncnc(Nc4ccc(Oc5cc6ncn(C)c6nc5C)c(C)c4)c3n2)C[C@H]1C` [Compound 247, (R)-1-(4-(4-((4-((3,5-dimethyl-3H-imidazo[4,5-b]pyridin-6-yl)oxy)-3-methylphenyl)amino)pyrido[3,2-d]pyrimidin-6-yl)-2-methylpiperazin-1-yl)prop-2-en-1-one], the IC50 against ErbB2 V777L lay within 50 to 100 nM; against EGFR WT, 500 to 1000 nM.
Turning to `C=CC(=O)N(C)C1CC2(C1)CN(c1ncc3ncnc(Nc4ccc(Oc5ccc6c(c5)nnn6C)c(C)c4)c3n1)C2` [Compound 232, N-methyl-N-(2-(8-((3-methyl-4-((1-methyl-H-benzo[d][1,2,3]triazol-5-yl)oxy)phenyl)amino)pyrimido[5,4-d]pyrimidin-2-yl)-2-azaspiro[3.3]heptan-6-yl)acrylamide], the IC50 at ErbB2 V777L is 500 to 1000 nM; against EGFR WT, not below 1000 nM.
Regarding `C=CC(=O)N1CCN(c2ccc3ncnc(Nc4ccc(Oc5cnc6c(c5)ncn6C(F)F)c(C)c4F)c3n2)C[C@H]1C` [Compound 261, (R)-1-(4-(4-((4-((3-(difluoromethyl)-3H-imidazo[4,5-b]pyridin-6-yl)oxy)-2-fluoro-3-methylphenyl)amino)pyrido[3,2-d]pyrimidin-6-yl)-2-methylpiperazin-1-yl)prop-2-en-1-one], the results for the half-inhibitory concentration (IC50) at ErbB2 V777L and against EGFR WT were 100 to 500 nM and less than 50 nM, respectively.
Regarding `C=CC(=O)N1CCCN(c2ncc3ncnc(Nc4ccc(Oc5ccc6c(c5)ncn6C)c(C)c4)c3n2)C[C@H]1C` [Compound 143, (R)-1-(2-methyl-4-(8-((3-methyl-4-((1-methyl-1H-benzo[d]imidazol-5-yl)oxy)phenyl)amino)pyrimido[5,4-d]pyrimidin-2-yl)-1,4-diazepan-1-yl)prop-2-en-1-one], the values for the IC50 at ErbB2 V777L and at EGFR WT were 100 to 500 nM and not below 1000 nM, respectively.
For the compound `C=CC(=O)N1CCN(c2ncc3ncnc(Nc4cc(C)c(Oc5ccc6c(c5)nnn6C)cc4F)c3n2)CC1` [Compound 6, 1-(4-(8-((2-fluoro-5-methyl-4-((1-methyl-1H-benzo[d][1,2,3]triazol-5-yl)oxy)phenyl)amino)pyrimido [5,4-d]pyrimidin-2-yl)piperazin-1-yl)prop-2-en-1-one], the IC50 on ErbB2 V777L and against EGFR WT was 100 to 500 nM in each case.
As to `C=CC(=O)N1CCC[C@H](N(C)c2ncc3ncnc(Nc4ccc(Oc5ccc6c(c5)nnn6C)c(C)c4)c3n2)C1` [Compound 224, (S)-1-(3-(methyl(8-((3-methyl-4-((1-methyl-1H-benzo[d][1,2,3]triazol-5-yl)oxy)phenyl)amino)pyrimido[5,4-d]pyrimidin-2-yl)amino)piperidin-1-yl)prop-2-en-1-one], the figures for the IC50 against ErbB2 V777L and at EGFR WT were 50 to 100 nM and 100 to 500 nM, respectively.
On to `C=CC(=O)N1CC2CC(C1)N2c1ccc2ncnc(Nc3ccc(Oc4ccc5c(c4)nnn5C)c(C)c3)c2n1` [Compound 96, 1-(6-(4-((3-methyl-4-((1-methyl-1H-benzo[d][1,2,3]triazol-5-yl)oxy)phenyl)amino)pyrido[3,2-d]pyrimidin-6-yl)-3,6-diazabicyclo[3.1.1]heptan-3-yl)prop-2-en-1-one], for which the half-maximal inhibitory concentration (IC50) against ErbB2 V777L and against EGFR WT was 100 to 500 nM each time.
On to `C=CC(=O)N1C[C@H](C)N(c2ncc3ncnc(Nc4ccc(Oc5ccc6c(c5)nnn6C)c(C)c4)c3n2)C[C@@H]1C` [Compound 187, 1-((2S,5S)-2,5-dimethyl-4-(8-((3-methyl-4-((1-methyl-1H-benzo[d][1,2,3]triazol-5-yl)oxy)phenyl)amino)pyrimido[5,4-d]pyrimidin-2-yl)piperazin-1-yl)prop-2-en-1-one], for which the IC50 at ErbB2 V777L lay within 50 to 100 nM; on EGFR WT, 100 to 500 nM.
For `C=CC(=O)N1CCN(c2ccc3ncnc(Nc4ccc(Oc5ccc6c(c5)ncn6C(F)F)c(C)c4F)c3n2)C[C@@H]1C1CC1` [Compound 286, (S)-1-(2-cyclopropyl-4-(4-((4-((1-(difluoromethyl)-1H-benzo[d]imidazol-5-yl)oxy)-2-fluoro-3-methylphenyl)amino)pyrido[3,2-d]pyrimidin-6-yl)piperazin-1-yl)prop-2-en-1-one], the figures for the half-inhibitory concentration (IC50) on ErbB2 V777L and at EGFR WT were 100 to 500 nM and not below 1000 nM, respectively.
With `C=CC(=O)N1CCN(c2ccc3ncnc(Nc4c(OC)cc(Oc5ccc6c(c5)nnn6C)c(C)c4F)c3n2)C[C@H]1C` [Compound 256, (R)-1-(4-(4-((2-fluoro-6-methoxy-3-methyl-4-((1-methyl-1H-benzo[d][1,2,3]triazol-5-yl)oxy)phenyl)amino)pyrido[3,2-d]pyrimidin-6-yl)-2-methylpiperazin-1-yl)prop-2-en-1-one], the IC50 on ErbB2 V777L and at EGFR WT was 100 to 500 nM in each case.
Consider `C=CC(=O)N[C@H]1CCCCN(c2ccc3ncnc(Nc4ccc(Oc5ccc6c(c5)nnn6C)c(C)c4F)c3n2)C1` [Compound 291, (S)-N-(1-(4-((2-fluoro-3-methyl-4-((1-methyl-1H-benzo[d][1,2,3]triazol-5-yl)oxy)phenyl)amino)pyrido[3,2-d]pyrimidin-6-yl)azepan-3-yl)acrylamide], for which the IC50 is 50 to 100 nM against ErbB2 V777L and 100 to 500 nM against EGFR WT.
For `C=CC(=O)N(C)C1C2CN(c3ncc4ncnc(Nc5ccc(Oc6ccc7c(c6)nnn7C)c(C)c5F)c4n3)CC21` (stereo not drawn) [Compound 226, N-(3-(8-((2-fluoro-3-methyl-4-((1-methyl-1H-benzo[d][1,2,3]triazol-5-yl)oxy)phenyl)amino)pyrimido[5,4-d]pyrimidin-2-yl)-3-azabicyclo[3.1.0]hexan-6-yl)-N-methylacrylamide], in that order: 100 to 500 nM and 100 to 500 nM.
Turning to `C=CC(=O)N(C)C1CN(c2ncc3ncnc(Nc4ccc(Oc5ccc6c(c5)nnn6C)c(C)c4)c3n2)C1` [Compound 26, N-methyl-N-(1-(8-((3-methyl-4-((1-methyl-1H-benzo[d][1,2,3]triazol-5-yl)oxy)phenyl)amino)pyrimido[5,4-d]pyrimidin-2-yl)azetidin-3-yl)acrylamide], the half-maximal inhibitory concentration (IC50) against ErbB2 V777L and on EGFR WT was 100 to 500 nM in each case.
On to `C=CC(=O)N1CC2C(C1)N2c1ncc2ncnc(Nc3ccc(Oc4ccc5c(c4)nnn5C)c(C)c3)c2n1` (stereo not drawn) [Compound 242, 1-(6-(8-((3-methyl-4-((1-methyl-1H-benzo[d][1,2,3]triazol-5-yl)oxy)phenyl)amino)pyrimido[5,4-d]pyrimidin-2-yl)-3,6-diazabicyclo[3.1.0]hexan-3-yl)prop-2-en-1-one], for which the IC50 on ErbB2 V777L is 500 to 1000 nM; against EGFR WT it was 100 to 500 nM.
Turning to `C=CC(=O)N[C@@H]1[C@@H]2CC[C@H]1CN(c1ncc3ncnc(Nc4ccc(Oc5ccc6c(c5)nnn6C)c(C)c4)c3n1)C2` [Compound 206, N-((1R,5S,8s)-3-(8-((3-methyl-4-((1-methyl-1H-benzo[d][1,2,3]triazol-5-yl)oxy)phenyl)amino)pyrimido[5,4-d]pyrimidin-2-yl)-3-azabicyclo[3.2.1]octan-8-yl)acrylamide], the half-inhibitory concentration (IC50) on ErbB2 V777L was 50 to 100 nM; against EGFR WT, 100 to 500 nM.
Turning to `C=CC(=O)N1CC(F)(F)C12CN(c1ncc3ncnc(Nc4ccc(Oc5ccc6c(c5)nnn6C)c(C)c4)c3n1)C2` [Compound 221, 1-(3,3-difluoro-6-(8-((3-methyl-4-((1-methyl-1H-benzo[d][1,2,3]triazol-5-yl)oxy)phenyl)amino)pyrimido[5,4-d]pyrimidin-2-yl)-1,6-diazaspiro[3.3]heptan-1-yl)prop-2-en-1-one], the figures for the IC50 against ErbB2 V777L and at EGFR WT were 50 to 100 nM and less than 50 nM, respectively.
For the compound `C=CC(=O)N1C[C@H](N(C)c2ccc3ncnc(Nc4ccc(Oc5ccc6c(c5)nnn6C)c(C)c4)c3n2)C[C@H]1C` [Compound 266, 1-((2R,4R)-2-methyl-4-(methyl(4-((3-methyl-4-((1-methyl-1H-benzo[d][1,2,3]triazol-5-yl)oxy)phenyl)amino)pyrido[3,2-d]pyrimidin-6-yl)amino)pyrrolidin-1-yl)prop-2-en-1-one], the figures for the IC50 against ErbB2 V777L and at EGFR WT were 50 to 100 nM and 100 to 500 nM, respectively.
For `C=CC(=O)N1CCCN(c2ccc3ncnc(Nc4ccc(Oc5ccn6ncnc6c5)c(C)c4)c3n2)CC1` [Compound 357, 1-(4-(4-((4-([1,2,4]triazolo[1,5-a]pyridin-7-yloxy)-3-methylphenyl)amino)pyrido[3,2-d]pyrimidin-6-yl)-1,4-diazepan-1-yl)prop-2-en-1-one], in that order: 50 to 100 nM and 500 to 1000 nM.
Regarding `C=CC(=O)N1CCN(c2ccc3ncnc(Nc4ccc(Oc5ccc6c(c5)nnn6C(F)F)c(C)c4F)c3n2)C[C@H]1C` [Compound 323, (R)-1-(4-(4-((4-((1-(difluoromethyl)-1H-benzo[d][1,2,3]triazol-5-yl)oxy)-2-fluoro-3-methylphenyl)amino)pyrido[3,2-d]pyrimidin-6-yl)-2-methylpiperazin-1-yl)prop-2-en-1-one], the results for the IC50 against ErbB2 V777L and against EGFR WT were 500 to 1000 nM and 100 to 500 nM, respectively.
For the compound `C=CC(=O)N1CC[C@H](N(C)c2ccc3ncnc(Nc4ccc(Oc5ccc6c(c5)nnn6C)c(C)c4)c3n2)[C@@H]1C` [Compound 265, 1-((2S,3S)-2-methyl-3-(methyl(4-((3-methyl-4-((1-methyl-1H-benzo[d][1,2,3]triazol-5-yl)oxy)phenyl)amino)pyrido[3,2-d]pyrimidin-6-yl)amino)pyrrolidin-1-yl)prop-2-en-1-one], the IC50 at ErbB2 V777L and at EGFR WT was 100 to 500 nM throughout.
